Reference: patent publication US5811073A, “Method for radioisotopic detection and localization of inflammation in a host” (President and Fellows of Harvard College, priority 1995, dated 1998)

Legend:
[1] = tested on: sterile and bacterial inflammation; settings: i.v., 200-300 μCi gallium-67 citrate, 300-500 μCi ^99m Tc-human serum albumin, 100-150 μCi ^111 In-IgG or ^125 I-IgG; cited from earlier work
[2] = intravenous; adult man; ^123 I-iodine thyroid blocked; cited from earlier work
[3] = tested on: sterile inflammatory lesions (pus capsule; turpentine oil); test: Gamma camera imaging of rats with sterile inflammation; format: in vivo, Male Sprague-Dawley rats; settings: for Figure of Merit (FOM), equation (1): 0.2 mCi ^67 Ga-citrate; for Figure of Merit (FOM), equation (1) / Pus Capsule to Contralateral Tissue (T/B) Ratio, gamma camera imaging: 1.5 mCi/rat ^123 IUdR; for Figure of Merit (FOM), equation (1) / Pus Capsule to Contralateral Tissue (T/B) Ratio, gamma camera imaging / Figure of Merit (FOM), equation (2): n=4, mean ± SD; for Pus Capsule to Contralateral Tissue (T/B) Ratio, gamma camera imaging: 0.2 mCi/rat ^67 Ga
Method: Male Sprague-Dawley rats weighing between 150-200g were obtained from the Charles River Breeding Laboratories in Burlington, Mass. […] To anaesthetize the animals during testing, ketamine (40 mg/kg) and xylazine (10 mg/kg) were administered intra peritoneally (1.0 ml/kg) prior to surgical procedures. For the imaging studies, each animal received 1.5 ml/kg of a mixture of ketamine (75 mg/kg), xylazine (39 mg/kg) and acepromazine (0.75 mg/kg).
To induce a localized sterile inflammation, 0.1 ml of turpentine oil (Rectified Turpentine Oil for medical use, Gentry Corporation, Fair Lawn, N.J.) was injected into the left thigh muscle of anesthetized rats.
A further set of rats prepared as described in Examples 1 and 2 received intravenous injections of either ^123 IUdR (at a dose of about 1.5 mCi/rat) or gallium-67 citrate (at a dose of about 0.2 mCi/rat). After 1, 3 and 24 hours, rats from each group were anesthetized and imaged using a gamma camera (the General Electric STARCAM™ 400 fitted with parallel hole medium collimator). Anterior images were obtained 10^6 counts/frame except for the 24 h period for ^123 IUdR where a 15 min scan was carried out. A 20% window was present over the 159 keV photopeaks of ^67 Ga (93 kev, 184 keV, and 298 keV).
Regions of interest (ROI) were drawn over the inflamed areas (3×4 pixel) and over the contralateral area in each rat. Total counts in these regions were used to calculate Target to Background (T/B) ratios and to calculate Figure of Merit (FOM; statistical significance) values using either of the following equations:
FOM=(At -Ab)^2 /(At +Ab) (1)
At =counts in ROI (3×4) over pus capsule; and
Ab =counts in ROI (3×4) over contralateral muscle.
Equation (1) is derived from the Report of the National Council on Radiation Protection and Measurements, Nuclear Medicine, "Factors Influencing the Choice and Use of Radionuclides in Diagnosis and Therapy", Report No. 70, p.79 (NRCP, Bethesda, Md., 1982). Equation (2) is derived from Rubin et al., J. Nucl. Med. 30:385-389, 1989. For purposes of reference, the disclosures of each of these publications is incorporated herein.

[4] = Total photon efficiency of gamma camera; format: physicochemical
Method: For use in calculating dosages, the relative photon efficiencies of ^123 IUdR and of gallium-67 were determined.
Total Photon Efficiency of Gamma Camera
With Respect to ^123 IUdR and gallium-67
keV* Frequency X Efficiency

[5] = tested on: sterile inflammatory lesions (pus capsule; turpentine oil); test: Biodistribution (pus capsule to contralateral tissue ratio) in rats with sterile inflammation; settings: for Pus Capsule and Contralateral Tissue (T/B) Ratio, biodistribution: sterile inflammation, i.v., 10 μCi/rat ^67 Ga (n=2), 5 μCi/rat ^125 IUdR (n=6), mean ± SD

## O=C([O-])CC(O)(CC(=O)[O-])C(=O)[O-].[67Ga+3] [^67 Ga, gallium-67 citrate]
[1]
  time of maximum target to background tissue ratio for image intensity: 3 h
[2]
  whole body effective dose: 0.44 rad/mCi
[3]; 1, 3, and 24 h, i.v.
  detection of the lesion in scintigraphic images (in words): can clearly detect the lesion
[3]; 1 h, i.v.
  Figure of Merit (FOM), equation (1): 1037 ± 215
  Pus Capsule to Contralateral Tissue (T/B) Ratio, gamma camera imaging: 2.76 ± 0.18
  Figure of Merit (FOM), equation (2): 1.75 ± 0.2
[3]; 3 h, i.v.
  Figure of Merit (FOM), equation (1): 1581 ± 143
  Pus Capsule to Contralateral Tissue (T/B) Ratio, gamma camera imaging: 3.61 ± 0.15
  Figure of Merit (FOM), equation (2): 2.61 ± 0.18
[3]; 3 hrs
  efficacy by imaging T/B ratio, comparison of agents (in words): equal
[3]; 24 h, i.v.
  Figure of Merit (FOM), equation (1): 1958 ± 149
  Pus Capsule to Contralateral Tissue (T/B) Ratio, gamma camera imaging: 5.09 ± 0.44
  Figure of Merit (FOM), equation (2): 4.09 ± 0.50
[3]; by 24 hrs
  imaging T/B ratios, comparison of agents (in words): higher T/B ratios
[3]; later time points (3 hrs and 24 hrs)
  FOM values, comparison of agents (in words): equal or higher FOM values
[4]; 91.3 keV
  Total Photon Efficiency: 0.0296
[4]; 93.3 keV
  Total Photon Efficiency: 0.37
[4]; 184.6 keV
  Total Photon Efficiency: 0.1326
[4]; 209 keV
  Total Photon Efficiency: 0.01515
[4]; 300.2 keV
  Total Photon Efficiency: 0.0415
[4]; sum over photopeaks (^67 Ga), 159 keV (^123 I)
  Total Photon Efficiency: 0.59
[5]; sterile inflammation (turpentine oil)
  concentration within lesion (pus capsule) vs contralateral tissues (in words): to a greater extent than in the contralateral tissues
[5]; 3 h
  Pus Capsule and Contralateral Tissue (T/B) Ratio, biodistribution: 3.55 ± 0.24
[5]; 24 h
  Pus Capsule and Contralateral Tissue (T/B) Ratio, biodistribution: 2.85 ± 0.64
